This passage reports stability of emulsion results from patent publication US20060134056A1, “Use of alkylguanidines as cationic emulsifiers” (G[…], priority 2004, published 2006).

Structures are written as SMILES.

The data set in a line: storage stability of O/W emulsions. The conditions noted are these: O/W emulsion with 0.5% emulsifier; room temperature, 45° C. and freeze-thaw cycles (3×−15° C.). Type of data set: physicochemical. Here is the method: Here, it was paaticulaily surprising that stable emulsions were obtainale even at emulsifier concentrations of 0.5% stearylguanidinium acetate (6 months stability at room temperature, 45° C. and freeze-thaw cycles (3×−15° C.)).
In addition, emulsions 7 to 8 also illustrate the excellent emulsifying properties of other alkylguanidinium salts.

Compound `CC(=O)O.CCCCCCCCCCCCCCCCCCNC(=N)N` [stearylguanidinium acetate] registered a stability of emulsion of 6 months.
